Patent US9278963B2, “Pyrimidine hydroxy amide compounds as histone deacetylase inhibitors” (Acetylon Pharmaceuticals, Inc., priority 2013, dated 2016)

Key:
Assay type in all cases: biochemical
[1] = molecular target: HDAC2 (Homo sapiens (Human), UniProt Q92769); test: HDAC enzyme assay, HDAC2
Description: (§1) Compounds for testing were diluted in DMSO to 50 fold the final concentration and a ten point three fold dilution series was made. The compounds were diluted in assay buffer (50 mM HEPES, pH 7.4, 100 mM KCl, 0.001% Tween-20, 0.05% BSA, 20 μM TCEP) to 6 fold their final concentration. The HDAC enzymes (purchased from BPS Biosciences) were diluted to 1.5 fold their final concentration in assay buffer. The tripeptide substrate and trypsin at 0.05 μM final concentration were diluted in assay buffer at 6 fold their final concentration. The final enzyme concentrations used in these assays were 3.3 ng/ml (HDAC1), 0.2 ng/ml (HDAC2), 0.08 ng/ml (HDAC3) and 2 ng/ml (HDAC6). The final substrate concentrations used were 16 μM (HDAC1), 10 μM (HDAC2), 17 μM (HDAC3) and 14 μM (HDAC6).
(§2) Five μl of compounds and 20 μl of enzyme were added to wells of a black, opaque 384 well plate in duplicate. Enzyme and compound were incubated together at room temperature for 10 minutes. Five μ1 of substrate was added to each well, the plate was shaken for 60 seconds and placed into a Victor 2 microtiter plate reader. The development of fluorescence was monitored for 60 min and the linear rate of the reaction was calculated. The IC50 was determined using Graph Pad Prism by a four parameter curve fit.

[2] = molecular target: HDAC3 (Homo sapiens (Human), UniProt O15379); test: HDAC enzyme assay, HDAC3
Sequence of HDAC3 (O15379 whole entry): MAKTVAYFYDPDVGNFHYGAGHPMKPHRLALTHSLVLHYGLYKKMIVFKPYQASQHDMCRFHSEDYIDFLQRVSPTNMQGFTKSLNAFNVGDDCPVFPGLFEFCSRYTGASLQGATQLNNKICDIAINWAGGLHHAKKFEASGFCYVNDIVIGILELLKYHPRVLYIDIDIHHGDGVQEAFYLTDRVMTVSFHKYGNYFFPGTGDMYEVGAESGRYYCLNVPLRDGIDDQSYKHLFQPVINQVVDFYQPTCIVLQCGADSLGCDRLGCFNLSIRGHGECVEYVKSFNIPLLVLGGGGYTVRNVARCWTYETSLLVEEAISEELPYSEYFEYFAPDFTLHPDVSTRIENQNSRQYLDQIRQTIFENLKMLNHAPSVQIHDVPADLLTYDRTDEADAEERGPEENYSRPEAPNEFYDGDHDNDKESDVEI
Sequence of HDAC3 (Q9Y618 395-489 partner): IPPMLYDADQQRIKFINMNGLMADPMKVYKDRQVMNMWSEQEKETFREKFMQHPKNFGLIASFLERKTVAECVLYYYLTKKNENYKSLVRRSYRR
Description: as §1, with “The HDAC enzymes (purchased from BPS Biosciences) were diluted to 1.5 fold their final concentration in assay buffer.” left out, “(HDAC6).” for “(HDAC6). The final substrate concentrations used were 16 μM (HDAC1), 10 μM (HDAC2), 17 μM (HDAC3) and 14 μM (HDAC6).”
as §2

[3] = molecular target: HDAC1 (Homo sapiens (Human), UniProt Q13547); test: HDAC enzyme assay, HDAC1
Sequence of HDAC1 (Q13547 whole entry): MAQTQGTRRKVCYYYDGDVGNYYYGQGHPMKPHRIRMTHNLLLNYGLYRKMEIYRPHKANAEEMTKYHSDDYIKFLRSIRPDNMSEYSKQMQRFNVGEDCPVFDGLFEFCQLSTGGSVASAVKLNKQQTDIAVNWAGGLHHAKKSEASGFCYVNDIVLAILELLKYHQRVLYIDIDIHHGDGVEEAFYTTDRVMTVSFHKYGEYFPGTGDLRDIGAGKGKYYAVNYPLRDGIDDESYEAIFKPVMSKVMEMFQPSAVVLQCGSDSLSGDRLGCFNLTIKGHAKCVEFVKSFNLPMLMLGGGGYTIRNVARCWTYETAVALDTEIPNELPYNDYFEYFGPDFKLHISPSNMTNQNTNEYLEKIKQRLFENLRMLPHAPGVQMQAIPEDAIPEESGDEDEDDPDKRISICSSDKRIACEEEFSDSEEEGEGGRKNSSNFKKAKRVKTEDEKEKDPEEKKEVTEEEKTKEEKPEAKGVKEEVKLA
Description: as §1, §2

[4] = molecular target: HDAC6 (Homo sapiens (Human), UniProt Q9UBN7); test: HDAC enzyme assay, HDAC6
Sequence of HDAC6 (Q9UBN7 whole entry): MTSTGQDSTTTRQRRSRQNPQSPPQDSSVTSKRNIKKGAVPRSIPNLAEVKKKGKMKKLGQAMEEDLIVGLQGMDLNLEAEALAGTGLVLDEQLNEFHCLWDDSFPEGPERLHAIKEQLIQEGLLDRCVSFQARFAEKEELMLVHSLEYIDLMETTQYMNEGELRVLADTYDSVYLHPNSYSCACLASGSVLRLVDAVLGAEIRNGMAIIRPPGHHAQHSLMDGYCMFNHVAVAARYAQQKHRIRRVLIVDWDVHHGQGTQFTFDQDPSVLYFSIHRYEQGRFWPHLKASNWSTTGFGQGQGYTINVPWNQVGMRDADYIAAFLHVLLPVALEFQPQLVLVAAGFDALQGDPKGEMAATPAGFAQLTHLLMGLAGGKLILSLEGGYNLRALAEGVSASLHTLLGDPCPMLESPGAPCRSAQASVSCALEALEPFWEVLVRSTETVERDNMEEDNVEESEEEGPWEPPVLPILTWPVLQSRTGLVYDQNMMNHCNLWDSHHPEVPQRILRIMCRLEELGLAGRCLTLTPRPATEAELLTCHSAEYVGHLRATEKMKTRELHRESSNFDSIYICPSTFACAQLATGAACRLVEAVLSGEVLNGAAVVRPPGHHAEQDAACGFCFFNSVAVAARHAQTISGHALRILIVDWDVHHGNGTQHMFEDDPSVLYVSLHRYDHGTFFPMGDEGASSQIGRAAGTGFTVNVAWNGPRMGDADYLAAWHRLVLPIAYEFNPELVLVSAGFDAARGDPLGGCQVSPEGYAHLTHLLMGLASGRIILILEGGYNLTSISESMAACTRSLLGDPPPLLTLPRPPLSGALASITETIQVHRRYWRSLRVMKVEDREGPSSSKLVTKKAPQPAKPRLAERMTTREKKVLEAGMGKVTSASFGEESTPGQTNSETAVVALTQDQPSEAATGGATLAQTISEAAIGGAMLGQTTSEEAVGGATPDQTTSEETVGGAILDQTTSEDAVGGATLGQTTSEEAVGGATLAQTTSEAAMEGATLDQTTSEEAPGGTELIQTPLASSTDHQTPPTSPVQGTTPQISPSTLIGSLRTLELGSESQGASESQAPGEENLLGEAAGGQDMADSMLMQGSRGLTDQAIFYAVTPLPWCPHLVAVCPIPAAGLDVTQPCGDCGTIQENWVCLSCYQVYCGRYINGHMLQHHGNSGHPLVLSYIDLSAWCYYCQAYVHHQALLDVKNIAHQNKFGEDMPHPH
Description: as §1
as §2, with “fit. The IC50 values obtained for several of the compounds of this invention are found in Table 1.” for “fit.”

Sequence of HDAC2 (Q92769 whole entry): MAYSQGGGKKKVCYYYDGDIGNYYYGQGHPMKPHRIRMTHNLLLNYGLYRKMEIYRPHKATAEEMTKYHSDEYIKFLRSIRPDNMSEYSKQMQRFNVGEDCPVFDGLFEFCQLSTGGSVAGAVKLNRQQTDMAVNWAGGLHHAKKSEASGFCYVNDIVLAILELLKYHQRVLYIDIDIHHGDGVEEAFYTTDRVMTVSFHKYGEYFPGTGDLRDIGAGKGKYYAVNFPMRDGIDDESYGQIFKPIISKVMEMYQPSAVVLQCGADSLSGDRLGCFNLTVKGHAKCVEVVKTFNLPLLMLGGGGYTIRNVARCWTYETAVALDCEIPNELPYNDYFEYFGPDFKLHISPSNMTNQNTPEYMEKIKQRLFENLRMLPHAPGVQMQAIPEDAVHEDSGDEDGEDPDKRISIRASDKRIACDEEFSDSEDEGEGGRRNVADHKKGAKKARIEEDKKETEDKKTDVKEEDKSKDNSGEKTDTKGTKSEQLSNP

SMILES	IC50 [1] [nM]	IC50 [2] [nM]	IC50 [3] [nM]	IC50 [4] [nM]
O=C(NO)c1cnc(NC2(c3ccccc3)CCN(c3ccccc3)CC2)nc1 [Compound 009, 2-((1,4-diphenylpiperidin-4-yl)amino)-N-hydroxypyrimidine-5-carboxamide]	380	1780	356	2.1
O=C(NO)c1cnc(NC2(c3ccccc3)CCN(C(=O)Nc3ccccc3F)CC2)nc1 [Compound 010, 2-((1-((2-fluorophenyl)carbamoyl)-4-phenylpiperidin-4-yl)amino)-N-hydroxypyrimidine-5-carboxamide]	27	824	18	1.7
CN(C(=O)N1CCC(Nc2ncc(C(=O)NO)cn2)(c2ccccc2)CC1)c1ccccc1 [Compound 012, N-hydroxy-2-((1-(methyl(phenyl)carbamoyl)-4-phenylpiperidin-4-yl)amino)pyrimidine-5-carboxamide]	377	1620	266	2.2
O=C(NO)c1cnc(NC2(c3ccccc3)CCN(C(=O)Nc3ccc(F)cc3)CC2)nc1 [Compound 014, 2-((1-((4-fluorophenyl)carbamoyl)-4-phenylpiperidin-4-yl)amino)-N-hydroxypyrimidine-5-carboxamide]	43	1070	33	2
Cc1ccc(NC(=O)N2CCC(Nc3ncc(C(=O)NO)cn3)(c3ccccc3)CC2)cc1 [Compound 015, N-hydroxy-2-((4-phenyl-1-(p-tolylcarbamoyl)piperidin-4-yl)amino)pyrimidine-5-carboxamide]	46	693	34	2
CNC(=O)N1CCC(Nc2ncc(C(=O)NO)cn2)(c2ccccc2)CC1 [Compound 016, N-hydroxy-2-((1-(methylcarbamoyl)-4-phenylpiperidin-4-yl)amino)pyrimidine-5-carboxamide]	207	987	170	1.7
O=C(NO)c1cnc(NC2(c3ccccc3)CCN(S(=O)(=O)c3ccc(Cl)cc3)CC2)nc1 [Compound 019, 2-((1-((4-chlorophenyl)sulfonyl)-4-phenylpiperidin-4-yl)amino)-N-hydroxypyrimidine-5-carboxamide]	987	3190	854	5
Cc1ccccc1S(=O)(=O)N1CCC(Nc2ncc(C(=O)NO)cn2)(c2ccccc2)CC1 [Compound 020, N-hydroxy-2-((4-phenyl-1-(o-tolylsulfonyl)piperidin-4-yl)amino)pyrimidine-5-carboxamide]	423	1980	372	4.5
Cc1ccc(S(=O)(=O)N2CCC(Nc3ncc(C(=O)NO)cn3)(c3ccccc3)CC2)cc1 [Compound 021, N-hydroxy-2-((4-phenyl-1-tosylpiperidin-4-yl)amino)pyrimidine-5-carboxamide]	642	2510	570	4.5
O=C(NO)c1cnc(NC2(c3ccccc3)CCN(S(=O)(=O)c3ccccc3)CC2)nc1 [Compound 023, N-hydroxy-2-((4-phenyl-1-(phenylsulfonyl)piperidin-4-yl)amino)pyrimidine-5-carboxamide]	829	3540	844	4.6
O=C(NO)c1cnc(NC2(c3ccccc3)CCN(C(=O)Nc3c(F)cccc3F)CC2)nc1 [Compound 024, 2-((1-((2,6-difluorophenyl)carbamoyl)-4-phenylpiperidin-4-yl)amino)-N-hydroxypyrimidine-5-carboxamide]	22	761	22	3.7
C[C@@H](C(=O)N1CCC(C)(Nc2ncc(C(=O)NO)cn2)CC1)c1ccccc1 [Compound 027, (R)—N-hydroxy-2-((4-methyl-1-(2-phenylpropanoyl)piperidin-4-yl)amino)pyrimidine-5-carboxamide]	103	422	130	12
O=C(NO)c1cnc(NC2(c3ccccc3)CCN(C(=O)Cc3cc4ccccc4[nH]3)CC2)nc1 [Compound 031, 2-((1-(2-(1H-indol-2-yl)acetyl)-4-phenylpiperidin-4-yl)amino)-N-hydroxypyrimidine-5-carboxamide]	9	42	10	5

Other lines, results leading:

IC50 [1] [nM]	IC50 [2] [nM]	IC50 [3] [nM]	IC50 [4] [nM]	SMILES
74	1080	50	2.5	O=C(NO)c1cnc(NC2(c3ccccc3)CCN(C(=O)Nc3cccc(F)c3)CC2)nc1 [Compound 013, 2-((1-((3-fluorophenyl)carbamoyl)-4-phenylpiperidin-4-yl)amino)-N-hydroxypyrimidine-5-carboxamide]
5.2	111	5.9	2.4	O=C(NO)c1cnc(NC2(c3ccccc3)CCN(C(=S)Nc3ccccc3)CC2)nc1 [Compound 017, N-hydroxy-2-((4-phenyl-1-(phenylcarbamothioyl)piperidin-4-yl)amino)pyrimidine-5-carboxamide]
644	2480	551	5.1	O=C(NO)c1cnc(NC2(c3ccccc3)CCN(S(=O)(=O)c3cccc(F)c3)CC2)nc1 [Compound 018, 2-((1-((3-fluorophenyl)sulfonyl)-4-phenylpiperidin-4-yl)amino)-N-hydroxypyrimidine-5-carboxamide]
782	2700	704	7.3	O=C(NO)c1cnc(NC2(c3ccccc3)CCN(S(=O)(=O)c3ccc(C(F)(F)F)cc3)CC2)nc1 [Compound 022, N-hydroxy-2-((4-phenyl-1-((4-(trifluoromethyl)phenyl)sulfonyl)piperidin-4-yl)amino)pyrimidine-5-carboxamide]
2	24	3	2.8	O=C(NO)c1cnc(NC2(c3ccccc3)CCN(C(=O)Cc3c[nH]c4ccccc34)CC2)nc1 [Compound 028, 2-((1-(2-(1H-indol-3-yl)acetyl)-4-phenylpiperidin-4-yl)amino)-N-hydroxypyrimidine-5-carboxamide]
